Experimental findings from patent EP4168403B1 (priority 2020, dated 2021) are described below.

The target of assay [1] is T1, human recombinant butyrylcholinesterase (hBuChE; EC 3.1.1.8) (Homo sapiens, UniProt P06276).
T1 construct: purchased Sigma-Aldrich (Prague, Czech Republic)
The experiment in a line: Cholinesterase inhibition in vitro assay (modified Ellman's method), BuChE. The following applies: pH 7.4, 37 °C, mean ± SEM, read-out: BChE (IC50 µM). Type of assay: biochemical. The procedure:
The AChE and BuChE inhibitory activity of the tested compounds was determined using a modified Ellman's method^31, 32.Human red-blood cell acetylcholinesterase (hAChE; EC 3.1.1.7), and human recombinant butyrylcholinesterase (hBuChE; EC 3.1.1.8), 5,5'-dithiobis(2-nitrobenzoic acid) (Ellman's reagent, DTNB), phosphate buffer (PB, pH 7.4), acetylthiocholine (ATC), and butyrylthiocholine (BTC), were purchased from Sigma-Aldrich (Prague, Czech Republic). Nunc polystyrene 96-well microplates with flat-bottom shape (ThermoFisher Scientific, USA) were used for the measurement and all the assay were carried out in 0.1 M KH2PO4/K2HPO4 buffer, pH 7.4. Enzyme solution was prepared at activity 2.0 units/mL in 2 mL aliquots. The assay mixture (100 µL) consisted of 40 µL of 0.1 M phosphate buffer (pH 7.4), 20 µL of 0.01 M DTNB, 10 µL of enzyme, and 20 µL of 0.01 M substrate (ATC iodide solution). Tested compounds were dissolved first in methanol (BIGI 23 in DMSO) and then further diluted by assay buffer to the final concentration. […]. […] Enzyme with the inhibitor was preincubated for 5 min in the assay mixture and then the reaction was started by addition of 20 µL of substrate (ATC for AChE, BTC for BuChE). The enzyme activity was determined by measuring the increase in absorbance at 412 nm at 37 °C at 2 min intervals using a Multi-mode microplate reader Synergy 2 (Vermont, USA). Each concentration was assayed in triplicate. The obtained data were used to compute the percentage inhibition (I; Equation 1): I = 1−(ΔAi)/(ΔA0) [%] [formula] ΔAi indicates the absorbance change provided by cholinesterase exposed to AChE inhibitors and ΔA0 indicates absorbance change caused by intact cholinesterase (phosphate buffer was used instead of AChE inhibitor solution). […] Calculations were performed using software Microsoft Excel (Redmont, WA, USA) and GraphPad Prism version 5.02 for Windows, GraphPad Software, San Diego, CA, USA.
In general terms: In Ellman's method for cholinesterases, released thiocholine reacts with DTNB.

The target in assay [2] is T2, Human red-blood cell acetylcholinesterase (hAChE; EC 3.1.1.7) (Homo sapiens, UniProt P22303).
T2 construct: Human red-blood cell acetylcholinesterase; purchased Sigma-Aldrich (Prague, Czech Republic); host or cells: human red blood cells
The experiment in a line: biochemical. The note with it: pH 7.4, 37 °C, mean ± SEM, read-out: AChE (IC50 µM). The procedure:
The AChE and BuChE inhibitory activity of the tested compounds was determined using a modified Ellman's method^31, 32.Human red-blood cell acetylcholinesterase (hAChE; EC 3.1.1.7), and human recombinant butyrylcholinesterase (hBuChE; EC 3.1.1.8), 5,5'-dithiobis(2-nitrobenzoic acid) (Ellman's reagent, DTNB), phosphate buffer (PB, pH 7.4), acetylthiocholine (ATC), and butyrylthiocholine (BTC), were purchased from Sigma-Aldrich (Prague, Czech Republic). Nunc polystyrene 96-well microplates with flat-bottom shape (ThermoFisher Scientific, USA) were used for the measurement and all the assay were carried out in 0.1 M KH2PO4/K2HPO4 buffer, pH 7.4. Enzyme solution was prepared at activity 2.0 units/mL in 2 mL aliquots. The assay mixture (100 µL) consisted of 40 µL of 0.1 M phosphate buffer (pH 7.4), 20 µL of 0.01 M DTNB, 10 µL of enzyme, and 20 µL of 0.01 M substrate (ATC iodide solution). Tested compounds were dissolved first in methanol (BIGI 23 in DMSO) and then further diluted by assay buffer to the final concentration. […] Enzyme with the inhibitor was preincubated for 5 min in the assay mixture and then the reaction was started by addition of 20 µL of substrate (ATC for AChE, BTC for BuChE). […] Each concentration was assayed in triplicate. The obtained data were used to compute the percentage inhibition (I; Equation 1): I = 1−(ΔAi)/(ΔA0) [%] [formula] ΔAi indicates the absorbance change provided by cholinesterase exposed to AChE inhibitors and ΔA0 indicates absorbance change caused by intact cholinesterase (phosphate buffer was used instead of AChE inhibitor solution).

In assay [3] the test system is voltage-gated Ca^2+ channels (VGCC). The experiment in a line: Calcium channel antagonist assay (K+-evoked cytosolic Ca2+, Fluo-4). The following applies: SH-SY5Y cells, K+ 70 mM, mean ± SEM, read-out: IC50 (µM) Calcium channels blockade. In kind it is cell-based. The procedure:
The cytosolic Ca^2+ has been measured in SH-SY5Y cells. SH-SY5Y cells were maintained similarly to what was previously described^30. Free cytosolic Ca^2+ was measured using the fluorescent Ca^2+ indicator Fluo-4/AM (Fluo-4 acetomethoxyester). SH-SY5Y cells were seeded onto 96-well black plates at a density of 10^5 cells per well, achieving confluence after 48 h. Cells were washed with Krebs-Hepes solution (KH, in mM: 144 NaCl, 5.9 KCl, 1.2 MgCl2, 2 CaCl2, 11 D-glucose, 10 HEPES, pH 7.4). Cells were loaded with 10 µM Fluo-4/AM and 0.2% pluronic acid in KH and incubated for 45 min at 37 °C in the dark. Then, cells were washed twice with KH to remove the excess of probe. Tested compounds were incubated 10 min before K+ 70 mM was applied to evoke the increment of cytosolic Ca^2+. To normalize Fluo-4 signals, Triton X-100 (5%) and 1 M MnCl2 were applied to register both maximal and minimal fluorescence, respectively. The experiments were analyzed at excitation and emission wavelengths of 485 and 520 nm, respectively, and fluorescence was measured in a fluorescence microplate reader (FLUOstar Optima, BMG, Germany). Data were calculated as a percentage of Fmax - Fmin.
The blocking effect of the depolarization-induced Ca^2+ uptake was investigated in SH-SY5Y neuroblastoma cells stimulated with an extracellular concentration of K+ 70 mM, which induces the cell Ca^2+ levels elevation by opening voltage-gated Ca^2+ channels (VGCC), monitored with the Ca^2+-sensitive fluorescent dye Fluo-4. Nifedipine was used as positive standard.

Assay [4] is described as follows: Oxygen Radical Absorbance Capacity (ORAC-FL) assay. The following applies: Trolox equivalents (µmol of Trolox equivalent/µmol of compound). The procedure: The radical scavenging capacity of the TFAHs was determined by the ORAC-FL method using fluorescein as a fluorescent probe^33,34. (±)-6-Hydroxy-2,5,7,8-tetramethylchromane-2-carboxylic acid (Trolox), fluorescein (FL) and 2,2'-azobis(amidinopropane) dihydrochloride (AAPH) were purchased from Sigma-Aldrich. A Varioskan Flash plate reader with built-in injectors (Thermo Scientific) was used. The reaction was carried out at 37 °C in 75 mM phosphate buffer (pH= 7.4), and the final volume reaction mixture was 200 µL. The tested compounds and Trolox standard were dissolved in DMSO to 10 mM and further diluted in 75 mM phosphate buffer (pH= 7.4). The final concentrations were 0.1-1 µM for the tested compounds and 1-8 µM for Trolox standard. The blank was composed of 120 µL of FL, 60 µL of AAPH and 20 µL of phosphate buffer (pH=7.4) and was added in each assay.
The net AUC corresponding to a sample was calculated as follows: Net AUC = AUCantioxidant −AUCblank . [formula]
Regression equations were calculated by plotting the net AUC against the antioxidant concentration. The ORAC value was obtained by dividing the slope of the latter curve between the slope of the Trolox curve obtained in the same assay. Final ORAC values were expressed as µmol of Trolox equivalent/µmol of TFAH.

The subject of assay [5] is mice. The experiment in a line: Object Recognition task (ORT), scopolamine-induced memory impairment. In kind it is in vivo. The note with it: 1 mg/kg intraperitoneally with scopolamine 0.5 mg/kg. The procedure: For behavioural studies, 50 swiss female 10-week-old weighing 25-30 g were used. Memory impairment was induced by the potent antimuscarinic drug scopolamine hydrobromide (0.5 mg/kg, Sigma) dissolved in saline buffer. To explore the potential of BIGI-3h as a cognitive enhancer, the compound was administered at a dose of 1 mg/kg and 10 mg/kg. For comparison, the antiamnesic effect of donepezil was tested (Tocris Bioscience, R&D Systems Inc.) at a dose of 1 mg/kg. Both products, 3h and donepezil, were dissolved in saline buffer containing 3.6% dimethyl sulfoxide. All drug solutions were independently prepared immediately before their use and were administered intraperitoneally in 10 mL/kg of vehicle volume. Different batches of mice were used for each experiment. The animals were distributed into 5 experimental groups (I-V): control groups (I) mice administered 3.6% DMSO in saline buffer, labelled as "control vehicle"; experimental groups (II-V) consisted of (II) mice administered scopolamine dissolved in 3.6% DMSO in saline buffer, labelled as "scop/DMSO," (III) mice co-administered scopolamine plus Donepezil, labelled as "Scopo/donep," (IV) and (V) mice co-administrated scopolamine plus BIGI-3h at 1mg/Kg and 10mg/Kg labelled respectively "Scopo/3h 1" "Scopo/3h 10".
Spontaneous object recognition was tested as described previously, 28 with slight modifications. All behavioural experiments took place during the light phase of the 12-h light/ dark cycle between 10 am and 3 pm to minimize the influence of circadian rhythm, and they were conducted with the investigators blind to treatments. […] The total time spent in active exploration of each object during T1 and T2 was determined with a computerized tracking system and image analyzer (Ethovision XT, Noldus Information Technology) that tracked the nose, centre and tail points of each mouse^45. As a criterion of active object exploration, it was measured the time spent by the animal directing its nose to the object at a distance of less than 2 cm and/or touching it with the vibrissae or nose. […]

The target of assay [6] is Tau(306-336) peptide (Homo sapiens, UniProt P10636). The note with it: Tau(306-336) 50 µM, inhibitor 50 µM (1:1 ratio); mean ± SEM.
Sequence of Tau(306-336) peptide (P10636 623-653 limits assumed): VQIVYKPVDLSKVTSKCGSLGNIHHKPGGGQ
Description: Subsequently, the sample was aliquoted dried and stored at -20 °C.
Fluorescence data were recorded every 10 min overnight with 1 min shaking at 800 rpm prior to each reading. Each inhibitor was assayed in triplicates in at least two independent experiments. […] Inhibition % are expressed as the mean ± SEM. […] Values were averaged and the presented values are expressed as the mean ± SEM.
Fluorescence data were recorded every 10 min overnight with 1 min shaking at 800 rpm prior to each reading.

T2 sequence (P22303 32-617 isoform P22303-2 limits assumed): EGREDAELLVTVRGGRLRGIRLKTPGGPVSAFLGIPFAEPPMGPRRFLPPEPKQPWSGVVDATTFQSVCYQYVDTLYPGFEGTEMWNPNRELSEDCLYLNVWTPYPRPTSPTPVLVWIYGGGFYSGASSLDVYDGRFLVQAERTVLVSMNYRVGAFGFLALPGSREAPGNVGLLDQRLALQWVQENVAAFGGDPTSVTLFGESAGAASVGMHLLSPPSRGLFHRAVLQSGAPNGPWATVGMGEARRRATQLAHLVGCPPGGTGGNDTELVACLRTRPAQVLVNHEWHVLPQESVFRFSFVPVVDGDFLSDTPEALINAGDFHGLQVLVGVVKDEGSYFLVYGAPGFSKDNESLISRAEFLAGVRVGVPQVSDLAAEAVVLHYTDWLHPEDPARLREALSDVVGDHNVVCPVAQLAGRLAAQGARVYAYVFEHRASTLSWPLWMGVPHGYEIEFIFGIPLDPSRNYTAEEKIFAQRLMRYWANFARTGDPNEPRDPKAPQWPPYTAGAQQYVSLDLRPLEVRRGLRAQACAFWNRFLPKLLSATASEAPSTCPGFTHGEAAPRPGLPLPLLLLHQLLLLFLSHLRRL
T1 sequence (P06276 29-602): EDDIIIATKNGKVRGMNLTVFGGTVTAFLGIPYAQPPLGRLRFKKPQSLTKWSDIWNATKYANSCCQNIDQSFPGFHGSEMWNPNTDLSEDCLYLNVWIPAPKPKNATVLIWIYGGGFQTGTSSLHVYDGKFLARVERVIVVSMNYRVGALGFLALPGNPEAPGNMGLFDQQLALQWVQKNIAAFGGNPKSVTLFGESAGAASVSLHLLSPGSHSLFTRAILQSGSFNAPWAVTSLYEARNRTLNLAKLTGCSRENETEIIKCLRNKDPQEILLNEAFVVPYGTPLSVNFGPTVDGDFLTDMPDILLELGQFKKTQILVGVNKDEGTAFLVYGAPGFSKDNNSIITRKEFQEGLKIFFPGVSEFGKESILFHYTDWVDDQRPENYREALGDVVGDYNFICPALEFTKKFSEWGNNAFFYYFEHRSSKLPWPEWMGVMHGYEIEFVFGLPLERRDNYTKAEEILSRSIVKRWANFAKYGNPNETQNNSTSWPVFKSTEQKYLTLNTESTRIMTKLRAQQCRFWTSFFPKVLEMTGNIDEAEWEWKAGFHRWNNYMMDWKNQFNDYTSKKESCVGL

Broadly, the IC50 is the midpoint of a concentration-inhibition curve. `CCOC(=O)C1=C(C)N(CCCC2CCN(Cc3ccccc3)CC2)C(=O)NC1c1coc2cc(C)c(Cl)cc2c1=O` (centres unmarked) [BIGI-3l, ethyl 1-(3-(1-benzylpiperidin-4-yl)propyl)-4-(6-chloro-7-methyl-4-oxo-4H-chromen-3-yl)-6-methyl-2-oxo-1,2,3,4-tetrahydropyrimidine-5-carboxylate]: the IC50 worked out at 6.26 ± 0.31 µM in assay [1], 0.17 ± 0.01 µM in assay [2] and 3.2 ± 0.2 µM in assay [3]. The ORAC in assay [4] is listed as 1.68 ± 0.18 TE.

As for `CCOC(=O)C1=C(C)N(CCCC2CCN(Cc3ccccc3)CC2)C(=O)NC1c1coc2c(Cl)cc(Cl)cc2c1=O` (centres unmarked) [BIGI-3m, ethyl 1-(3-(1-benzylpiperidin-4-yl)propyl)-4-(6,8-dichloro-4-oxo-4H-chromen-3-yl)-6-methyl-2-oxo-1,2,3,4-tetrahydropyrimidine-5-carboxylate], the IC50 in assay [1] is 14.4 ± 1.2 µM; in assay [2], 0.34 ± 0.02 µM; in assay [3], 5 ± 2 µM. The ORAC in assay [4] is 3.29± 0.10 TE.

As to `CCOC(=O)C1=C(C)N(CCCC2CCN(Cc3ccccc3)CC2)C(=O)NC1c1coc2ccc(C(C)C)cc2c1=O` (centres unmarked) [BIGI-3n, ethyl 1-(3-(1-benzylpiperidin-4-yl)propyl)-4-(6-isopropyl-4-oxo-4H-chromen-3-yl)-6-methyl-2-oxo-1,2,3,4-tetrahydropyrimidine-5-carboxylate], the IC50 in assay [1] was 4.35 ± 0.23 µM; in assay [2] it was 0.58 ± 0.02 µM; in assay [3], 1.7 ± 0.4 µM. In assay [4], the ORAC is on record as 2.45± 0.04 TE.

On to `COc1cc2c(cc1OC)C(=O)C(CC1CCN(Cc3ccccc3)CC1)C2` (centres unmarked) [donepezil, reference compound], for which, in assay [5], the “recognition index / discrimination index (Figure 5)” value is “reversed the short-term memory impairment induced by scopolamine”.

As for `Nc1c2c(nc3ccccc13)CCCC2` [tacrine, reference compound], the “Inhibition of T (306-336) peptide self - aggregation (%)” value in assay [6] is reported as “not able to significantly interfere”.
